Results as given in patent US12295365B2, “Composition including an antimicrobial boosting agent including a sultaine and methods of increasing the antimicrobial effectiveness of a composition” (KIMBERLY-CLARK WORLDWIDE, INC., priority 2018, dated 2025).
Structures can show the parent of a compound that is named as a salt.

System: B. cepacia (ATCC 25416)
Test: Minimum Effective Concentration (MEC) Test Method
Type: cell-based, Burkholderia cepacia
Settings: 24 hours at room temperature
Method: Initial testing was conducted to screen a variety of surfactants in researching for potential antimicrobial boosting agents. The initial testing followed the methodology as described in the Minimum Effective Concentration (“MEC”) Test Method described in the Test Methods section herein. To summarize, the MEC testing paired a variety of potential antimicrobial boosting agents with a variety of known antimicrobial agents to determine the MEC of the respective antimicrobial agent that must be used to provide an effective antimicrobial result, as described in further detail in the Test Methods section. The more positive the boosting characteristics of an antimicrobial boosting agent, then the lower the MEC that would be required for the paired antimicrobial agent. It is to be noted that the molarities listed in Table 1 are approximate values that were calculated based on the estimated activities of the ingredients and the molecular weights of the active ingredients. In instances where an exact activity was not available for an ingredient blend, the ingredient blend activity was estimated as the average of the upper and lower limits of the specification provided by the manufacturer of such blend. In instances where an exact molecular weight could not be calculated (for example, in compounds derived from a natural oil like coconut oil), the molecular weight of the active was estimated based on a weighted average of the molecular weights of the constituent species.
The Minimum Effective Concentration Test Method discussed herein began by adding B. cepacia (ATCC 25416) culture at a final concentration of approximately 5×10^6 CFU/mL to the composition to be challenged. The challenged composition was then allowed to incubate at room temperature for 24 hours. After 24 hours, a preservative neutralizing broth was added to the mixture and measurements were subsequently taken to determine the concentration of B. cepacia still remaining after exposure to the test composition.
The Minimum Effective Concentration was determined by completing the process described above on a series of compositions with the same concentration of antimicrobial boosting agent, but with different concentrations of antimicrobial agent. The Minimum Effective Concentration of antimicrobial agent for any given value of antimicrobial boosting agent was defined as the minimum concentration of antimicrobial agent required to reduce the concentration of B. cepacia to a level below the detection threshold for the test method, which was approximately 100 CFU/mL. In instances where multiple rounds of Minimum Effective Concentration testing were completed, the value reported is the mean of the Minimum Effective Concentration values generated by each individual series of tests.

[1] = boosting agent (the label) at 5 mmol/L

Compound | MEC of Lactic Acid (Purac FCC 88) paired with the potential boosting agent [1] [mmol/L] | other results
C[N+](C)(CCCS(=O)(=O)[O-])Cc1ccccc1 [Benzyl Sultaine, 3-(Benzyldimethylammonio)propanesulfonate] | 40 | –
CCCCCCCC(=O)NO [Caprylhydroxamic Acid] | – | MEC of Caprylhydroxamic Acid (Zeastat) (no boosting agent): 10 mmol/L
CCCCCCCC[N+](C)(C)CCCS(=O)(=O)[O-] [Caprylyl Sultaine, 3-(N,N-Dimethyloctylammonio)propanesulfonate inner salt] | 40 | –
CCCCCCCCCCCCCCCC[N+](C)(C)CC(=O)[O-] [Cetyl Betaine] | 40 | –
CCCCCCCCCC[N+](C)(C)CCCS(=O)(=O)[O-] [Decyl Sultaine, 3-(Decyldimethylammonio)-propanesulfonate inner salt] | 30 | MEC of Hydroxyacetophenone (SymSave H) paired with the potential boosting agent [1]: 10 mmol/L
O=C(CO)c1ccccc1 [Hydroxyacetophenone] | – | MEC of Hydroxyacetophenone (SymSave H) (no boosting agent): 20 mmol/L
C[N+](C)(CCO)CC(O)C[N+](C)(C)CCO.[Cl-].[Cl-] [Hydroxypropyl Bis-Hydroxyethyldimonium Chloride] | 50 | –
CC(O)C(=O)O (stereo not shown) [Lactic Acid] | – | MEC of Lactic Acid (Purac FCC 88) (no boosting agent): 60 mmol/L
CCCCCCCCCCCC[N+](C)(C)CC(O)CS(=O)(=O)[O-] (stereo not shown) [Lauryl Hydroxysultaine] | 17 | MEC of Caprylhydroxamic Acid (Zeastat) paired with the potential boosting agent [1]: <2 mmol/L; MEC of Hydroxyacetophenone (SymSave H) paired with the potential boosting agent [1]: <5 mmol/L; MEC of Sodium Benzoate paired with the potential boosting agent [1]: <1 mmol/L
CCCCCCCCCCCC[N+](C)(C)CCCS(=O)(=O)[O-] [Lauryl Sultaine, N-Dodecyl-N,N-dimethyl-3-ammonio-1-propanesulfonate] | 20 | MEC of Hydroxyacetophenone (SymSave H) paired with the potential boosting agent [1]: 10 mmol/L
CCCCCCCCCCCCCC[N+](C)(C)CCCS(=O)(=O)[O-] [Myristyl Sultaine, 3-(N,N-Dimethylmyristylammonio)propanesulfonate] | 40 | –
CCCCCCCC[N+](C)(C)CC(=O)[O-] [Octyl Betaine] | 40 | –
CCCCCCCC[N+](C)(C)[O-] [Octyldimethylamine Oxide] | 40 | –
O=C([O-])c1ccccc1.[Na+] [Sodium Benzoate] | – | MEC of Sodium Benzoate (no boosting agent): 7.5 mmol/L
CCCCCCCCCCCC(=O)OC(C)C(=O)OC(C)C(=O)[O-].[Na+] (stereo not shown) [Sodium Lauroyl Lactylate] | 30 | –
Lauramidopropyl Hydroxysultaine | 30 | –
Laureth-3 Phosphate | 40 | –
Lauryl Glucoside | >30 | MEC of Sodium Benzoate paired with the potential boosting agent [1]: 10 mmol/L
Sodium Laurylglucosides Hydroxypropylsulfonate | >50 | –
